Measured values from patent US6867226B2, “Serotonin 5-HT3 receptor partial activator” (Meiji Seika Kaisha, Ltd., priority 1996, dated 2005).

Key:
serotonin 5-HT3 receptor [1] = target: T1, serotonin 5-HT3 receptor (Cavia porcellus, UniProt O70212); assay: 5-HT3 receptor activating action test, isometric contraction of guinea pig ileum longitudinal muscle; assay type: cell-based; conditions: for serotonin 5-HT3 receptor activating action (in words): guinea pig ileum contraction, summary of Table 1; for EC50: negative logarithm of molar concentration giving 50% of the compound's maximum contraction, read-out: Activation Action pD2 (converted); for EC50 / Activation Action i.a.: guinea pig ileum; for Activation Action i.a.: ratio of maximum reaction of compound to maximum contraction by 10 μM serotonin 5-HT defined as 1, 5-HT4 receptor desensitized
T1 construct: Longitudinal muscle samples of about 20 mm were prepared from the ileum of Hartley male guinea pigs; from tissue; host or cells: guinea pig (Hartley, male) ileum longitudinal muscle
T1 sequence (O70212 20-490): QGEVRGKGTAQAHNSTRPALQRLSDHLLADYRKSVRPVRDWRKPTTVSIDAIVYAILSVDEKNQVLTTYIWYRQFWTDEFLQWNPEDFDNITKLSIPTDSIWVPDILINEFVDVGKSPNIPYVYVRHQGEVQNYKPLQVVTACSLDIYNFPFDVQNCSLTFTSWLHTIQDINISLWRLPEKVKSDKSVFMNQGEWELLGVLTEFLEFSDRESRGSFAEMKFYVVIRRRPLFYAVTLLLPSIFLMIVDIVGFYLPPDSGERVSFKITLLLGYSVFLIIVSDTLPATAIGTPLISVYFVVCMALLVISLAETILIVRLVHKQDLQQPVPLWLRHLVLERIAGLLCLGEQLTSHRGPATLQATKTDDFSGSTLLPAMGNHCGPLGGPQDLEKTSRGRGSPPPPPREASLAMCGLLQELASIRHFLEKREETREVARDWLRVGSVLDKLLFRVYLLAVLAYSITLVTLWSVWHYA
Method: 5-HT3 Receptor Activating Action Test
(§1) Of the novel and known benzoxazole compounds according to the present invention, typical compounds and the compounds disclosed in JP-A-6-345744, namely 5-methoxy-2-(4-methyl-1-piperazinyl)benzoxazole (A) and 2-(4-methyl-1-piperazinyl)naphtho[2,3-d]oxazole (B), were measured for their serotonin 5-HT3 receptor antagonism and serotonin 5-HT3 receptor activating action by the following method, with the results shown in Table 1. Test compounds of the present invention are shown by the Inventive Example numbers.
(§2) Longitudinal muscle samples of about 20 mm were prepared from the ileum of Hartley male guinea pigs (500 to 800 g). Each of the thus prepared samples was hung down in a Magnus tube with a resting tension of about 0.5 g to measure the isometric contraction reaction. Serotonin 5-HT was applied with a concentration of from 0.1 to 30 μM to the sample which has been subjected twice in advance to 1 hour of treatment with 0.3 μM serotonin 5-HT to effect desensitization of serotonin 5-HT4 receptor.
The i.a. value was expressed as the ratio of the maximum reaction of each compound when the maximum contraction reaction obtained by 10 μM of serotonin 5-HT was defined as 1. The pD2 value was. expressed as the negative logarithmic value of concentration (molar concentration) by which 50% of the maximum contraction reaction of each test compound can be obtained. Also, antagonism of each test compound against the serotonin 5-HT3 receptor was calculated as the inhibition ratio of the contraction obtained by applying 10 μM of serotonin 5-HT (manufactured by Sigma) to a sample which has been treated with […] of each test sample to the contraction obtained by applying 10 μM of serotonin 5-HT to the sample before treatment.

serotonin 5-HT3 receptor [2] = target: T1, serotonin 5-HT3 receptor; assay: Serotonin 5-HT3 receptor antagonism, inhibition of 5-HT-induced contraction of guinea pig ileum longitudinal muscle; assay type: cell-based; conditions: inhibition ratio of contraction by 10 μM serotonin 5-HT after treatment with test compound 10 μM; Hartley guinea pig ileum
Method: as §1, §2
The i.a. value was expressed as the ratio of the maximum reaction of each compound when the maximum contraction reaction obtained by 10 μM of serotonin 5-HT was defined as 1. The pD2 value was. expressed as the negative logarithmic value of concentration (molar concentration) by which 50% of the maximum contraction reaction of each test compound can be obtained. […]

mice = assay: Toxicity test, oral administration to mice; assay type: in vivo; conditions: dose of 300 mg/kg, dissolved in water, five-week-old male mice (5 animals)

EC50 (serotonin 5-HT3 receptor [1]) | Structure (SMILES) | serotonin 5-HT3 receptor activating action (in words) (serotonin 5-HT3 receptor [1]) | inhibition at 10 µM (serotonin 5-HT3 receptor [2]) | Activation Action i.a. (serotonin 5-HT3 receptor [1]) | mortality (mice)
– | COc1ccc2oc(N3CCN(C)CC3)nc2c1 [A, 5-methoxy-2-(4-methyl-1-piperazinyl)benzoxazole, reference compound] | does not have serotonin 5-HT3 receptor activating action | 34% | – | –
3980 nM | CN1CCN(c2nc3cc4ccccc4cc3o2)CC1 [B, 2-(4-methyl-1-piperazinyl)naphtho[2,3-d]oxazole, reference compound] | weak in comparison with the compounds of the present invention | 85% | 0.45 | –
224 nM | C=CC[N+]1(C)CCN(c2nc3cc(Cl)ccc3o2)CC1 [Example 2] | – | 90% | 0.57 | –
316 nM | C=CC[N+]1(C)CCN(c2nc3cc(Cl)c(N)cc3o2)CC1.[Br-] [Example 7, 1-Allyl-1-methyl-4-(6-amino-5-chlorobenzoxazol-2-yl)piperazinium bromide] | – | 67% | 0.94 | –
– | c1ccc2oc(N3CCNCC3)nc2c1 [Example 14, 2-(1-Piperazinyl)benzoxazole] | – | 75% | – | –
501 nM | CN1CCN(c2nc3c(ccc4ccccc43)o2)CC1 [Example 21, 2-(4-Methyl-1-piperazinyl)naphtho[1,2-d]oxazole] | – | 85% | 0.26 | –
708 nM | C=CC[N+]1(C)CCN(c2nc3cc(C)ccc3o2)CC1.[Br-] [Example 25, 1-Allyl-1-methyl-4-(5-methylbenzoxazol-2-yl)piperazinium bromide] | – | 86% | 0.79 | –
– | C=CC[N+]1(C)CCN(c2nc3cccc(C)c3o2)CC1.[Br-] [Example 28, 1-Allyl-1-methyl-4-(7-methylbenzoxazol-2-yl)piperazinium bromide] | – | – | – | No mortal case
63.1 nM | Cc1cc(C)c2oc(N3CCCN(C)CC3)nc2c1 [Example 36, 5,7-Dimethyl-2-(4-methyl-1-homopiperazinyl)benzoxazole] | – | 96% | 0.28 | –
20 nM | Cc1cc(Cl)cc2nc(N3CCCN(C)CC3)oc12 [Example 37, 5-Chloro-7-methyl-2-(4-methyl-1-homopiperazinyl)benzoxazole] | – | 98% | 0.15 | –
79.4 nM | CN1CCCN(c2nc3c(ccc4ccccc43)o2)CC1 [Example 40, 2-(4-Methyl-1-homopiperazinyl)naphtho[1,2-d]oxazole] | – | 89% | 0.21 | –

Structure (SMILES) | EC50 (serotonin 5-HT3 receptor [1]) | serotonin 5-HT3 receptor activating action (in words) (serotonin 5-HT3 receptor [1]) | inhibition at 10 µM (serotonin 5-HT3 receptor [2]) | Activation Action i.a. (serotonin 5-HT3 receptor [1]) | mortality (mice)
CN1CCN(c2nc3cc(Cl)ccc3o2)CC1 [Example 1, 5-Chloro-2-(4-methyl-1-piperazinyl)benzoxazole] | 398 nM | – | 92% | 0.55 | –
CN1CCN(c2nc3cc(Cl)c(N)cc3o2)CC1 [Example 5, 6-Amino-5-chloro-2-(4-methyl-1-piperazinyl)benzoxazole] | 676 nM | – | 95% | 0.59 | –
Nc1cc2oc(N3CCNCC3)nc2cc1Cl [Example 10, 6-Amino-5-chloro-2-(1-piperazinyl)benzoxazole] | 676 nM | – | 88% | 0.69 | –
Cc1cc(C)c2oc(N3CCNCC3)nc2c1 [Example 13, 5,7-Dimethyl-2-(1-piperazinyl)benzoxazole] | 100 nM | – | 100% | 0.18 | No mortal case
Cc1ccc2oc(C3CCNCC3)nc2c1 [Example 16, 2-(4-Piperidyl)-5-methylbenzoxazole] | 617 nM | – | 82% | 0.24 | –
Cc1cc(Cl)cc2nc(N3CCN(C)CC3)oc12 [Example 31, 5-Chloro-7-methyl-2-(4-methyl-1-piperazinyl)benzoxazole] | 200 nM | – | 85% | 0.24 | –
